Data taken from patent US20260374756A1, “HETEROCYCLIC COMPOUNDS AS INHIBITORS OF MONOACYLGLYCEROL LIPASE (MAGL)” (Hoffmann-La Roche Inc., priority 2022, published 2026).
pIC50: −log10 of the molar value.

Molecular target: T1, hMAGL (Homo sapiens, UniProt Q99685)
T1 sequence (Q99685 1-303): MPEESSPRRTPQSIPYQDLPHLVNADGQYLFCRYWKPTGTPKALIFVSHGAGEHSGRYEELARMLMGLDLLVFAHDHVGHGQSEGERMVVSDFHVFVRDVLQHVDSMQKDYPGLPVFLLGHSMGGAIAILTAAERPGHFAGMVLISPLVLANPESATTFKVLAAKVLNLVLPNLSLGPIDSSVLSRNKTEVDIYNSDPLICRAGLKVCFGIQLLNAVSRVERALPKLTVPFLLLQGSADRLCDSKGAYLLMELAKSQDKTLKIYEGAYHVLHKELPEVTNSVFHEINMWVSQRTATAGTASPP
Assay: 2-AG assay: MAGL inhibition, hydrolysis of 2-arachidonoylglycerol to arachidonic acid followed by mass spectrometry
Type: biochemical
Summary of the method: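 MAGL preincubated with compound 15 min at RT in 50 mM Tris, 1 mM EDTA, 0.01% Tween-20, 2.5% DMSO; reaction started with 8 μM 2-AG (final), […], 30 min at RT. Quenched with acetonitrile containing d8-arachidonic acid; arachidonic acid quantified by RapidFire SPE-triple quad MS as arachidonic acid/d8 ratio.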

Row | pIC50 | SMILES
1 | 9.54 | Cc1cc(C2CC2)n(CC2CC3(C2)CN(C(=O)N2CC4(CC(n5cnc(C6CC6)n5)C4)C2)C3)n1 [Example 132, [6-[(5-cyclopropyl-3-methyl-pyrazol-1-yl)methyl]-2-azaspiro[3.3]heptan-2-yl]-[6-(3-cyclopropyl-1,2,4-triazol-1-yl)-2-azaspiro[3.3]heptan-2-yl]methanone]
2 | 8.19 | Cn1nc(C(F)(F)F)cc1CN1CCC2(CC1)CN(C(=O)N1CC3(CC(c4cc(C5CC5)n[nH]4)C3)C1)C2 [Example 24]
3 | 7.59 | O=C(N1CC2(CC(n3cnc(C4CC4)n3)C2)C1)N1CC2(CN(Cc3nc(CC(F)(F)F)no3)C2)C1 [Example 207, [6-(3-cyclopropyl-1,2,4-triazol-1-yl)-2-azaspiro[3.3]heptan-2-yl]-[6-[[3-(2,2,2-trifluoroethyl)-1,2,4-oxadiazol-5-yl]methyl]-2,6-diazaspiro[3.3]heptan-2-yl]methanone]
4 | 8.55 | CC(C)(C)c1conc1CN1CC2(C1)CN(C(=O)N1CC3(CC(n4cnc(C5CC5)n4)C3)C1)C2 [Example 256, [6-[(4-tert-butylisoxazol-3-yl)methyl]-2,6-diazaspiro[3.3]heptan-2-yl]-[6-(3-cyclopropyl-1,2,4-triazol-1-yl)-2-azaspiro[3.3]heptan-2-yl]methanone]
5 | 7.63 | O=C(N1CC2(CC(c3cc(C4CC4)n[nH]3)C2)C1)N1CC2(CN(Cc3cnn(C(F)(F)F)c3)C2)C1 [Example 180, [6-(3-cyclopropyl-1H-pyrazol-5-yl)-2-azaspiro[3.3]heptan-2-yl]-[6-[[1-(trifluoromethyl)pyrazol-4-yl]methyl]-2,6-diazaspiro[3.3]heptan-2-yl]methanone]
6 | 8.81 | O=C(N1CC2(CC(Cn3cnc(C(F)(F)F)c3)C2)C1)N1CC2(CC(c3cc(C4CC4)n[nH]3)C2)C1 [Example 39, [6-(3-cyclopropyl-1H-pyrazol-5-yl)-2-azaspiro[3.3]heptan-2-yl]-[6-[[4-(trifluoromethyl)imidazol-1-yl]methyl]-2-azaspiro[3.3]heptan-2-yl]methanone]
7 | 7.73 | CC(C)(C)c1conc1CN1CC2(C1)CN(C(=O)N1CC3(CC(n4cnc(C(F)(F)F)n4)C3)C1)C2 [Example 255, [6-[(4-tert-butylisoxazol-3-yl)methyl]-2,6-diazaspiro[3.3]heptan-2-yl]-[6-[3-(trifluoromethyl)-1,2,4-triazol-1-yl]-2-azaspiro[3.3]heptan-2-yl]methanone]
8 | 9.92 | O=C(N1CC2(CC(Cc3cn[nH]c3C(F)(F)F)C2)C1)N1CC2(CC(n3cnc(C(F)(F)F)n3)C2)C1 [Example 119, [6-[[5-(trifluoromethyl)-1H-pyrazol-4-yl]methyl]-2-azaspiro[3.3]heptan-2-yl]-[6-[3-(trifluoromethyl)-1,2,4-triazol-1-yl]-2-azaspiro[3.3]heptan-2-yl]methanone]
